Results published in patent publication US20060062732A1, “Medicine for detecting lipid components in vivo and vascular endoscope” (Yasumi UCHIDA, priority 2004, published 2006).

Key:
[1] = Self-fluorescence of dyes and plaque substances by fluorescent microscopy; format: physicochemical; design: key to Self-fluorescence colour: B: blue.; G: green.; O: orange.; W: white.; Y: yellow; details: for Self-fluorescence present or not: exciting 360/emitting 420 nm or exciting 470/emitting 515 nm
[2] = target: T1, ApoB100 (apolipoprotein B100) (Homo sapiens, UniProt P04114); experiment: Dye-evoked fluorescence of ApoB100, fluorescent microscopy; design: key: B: blue.; G: green.; O: orange.; W: white.; Y: yellow
T1 construct: purchased ICN Biomedicals, Ohio
T1 sequence (P04114 28-4563, species assumed): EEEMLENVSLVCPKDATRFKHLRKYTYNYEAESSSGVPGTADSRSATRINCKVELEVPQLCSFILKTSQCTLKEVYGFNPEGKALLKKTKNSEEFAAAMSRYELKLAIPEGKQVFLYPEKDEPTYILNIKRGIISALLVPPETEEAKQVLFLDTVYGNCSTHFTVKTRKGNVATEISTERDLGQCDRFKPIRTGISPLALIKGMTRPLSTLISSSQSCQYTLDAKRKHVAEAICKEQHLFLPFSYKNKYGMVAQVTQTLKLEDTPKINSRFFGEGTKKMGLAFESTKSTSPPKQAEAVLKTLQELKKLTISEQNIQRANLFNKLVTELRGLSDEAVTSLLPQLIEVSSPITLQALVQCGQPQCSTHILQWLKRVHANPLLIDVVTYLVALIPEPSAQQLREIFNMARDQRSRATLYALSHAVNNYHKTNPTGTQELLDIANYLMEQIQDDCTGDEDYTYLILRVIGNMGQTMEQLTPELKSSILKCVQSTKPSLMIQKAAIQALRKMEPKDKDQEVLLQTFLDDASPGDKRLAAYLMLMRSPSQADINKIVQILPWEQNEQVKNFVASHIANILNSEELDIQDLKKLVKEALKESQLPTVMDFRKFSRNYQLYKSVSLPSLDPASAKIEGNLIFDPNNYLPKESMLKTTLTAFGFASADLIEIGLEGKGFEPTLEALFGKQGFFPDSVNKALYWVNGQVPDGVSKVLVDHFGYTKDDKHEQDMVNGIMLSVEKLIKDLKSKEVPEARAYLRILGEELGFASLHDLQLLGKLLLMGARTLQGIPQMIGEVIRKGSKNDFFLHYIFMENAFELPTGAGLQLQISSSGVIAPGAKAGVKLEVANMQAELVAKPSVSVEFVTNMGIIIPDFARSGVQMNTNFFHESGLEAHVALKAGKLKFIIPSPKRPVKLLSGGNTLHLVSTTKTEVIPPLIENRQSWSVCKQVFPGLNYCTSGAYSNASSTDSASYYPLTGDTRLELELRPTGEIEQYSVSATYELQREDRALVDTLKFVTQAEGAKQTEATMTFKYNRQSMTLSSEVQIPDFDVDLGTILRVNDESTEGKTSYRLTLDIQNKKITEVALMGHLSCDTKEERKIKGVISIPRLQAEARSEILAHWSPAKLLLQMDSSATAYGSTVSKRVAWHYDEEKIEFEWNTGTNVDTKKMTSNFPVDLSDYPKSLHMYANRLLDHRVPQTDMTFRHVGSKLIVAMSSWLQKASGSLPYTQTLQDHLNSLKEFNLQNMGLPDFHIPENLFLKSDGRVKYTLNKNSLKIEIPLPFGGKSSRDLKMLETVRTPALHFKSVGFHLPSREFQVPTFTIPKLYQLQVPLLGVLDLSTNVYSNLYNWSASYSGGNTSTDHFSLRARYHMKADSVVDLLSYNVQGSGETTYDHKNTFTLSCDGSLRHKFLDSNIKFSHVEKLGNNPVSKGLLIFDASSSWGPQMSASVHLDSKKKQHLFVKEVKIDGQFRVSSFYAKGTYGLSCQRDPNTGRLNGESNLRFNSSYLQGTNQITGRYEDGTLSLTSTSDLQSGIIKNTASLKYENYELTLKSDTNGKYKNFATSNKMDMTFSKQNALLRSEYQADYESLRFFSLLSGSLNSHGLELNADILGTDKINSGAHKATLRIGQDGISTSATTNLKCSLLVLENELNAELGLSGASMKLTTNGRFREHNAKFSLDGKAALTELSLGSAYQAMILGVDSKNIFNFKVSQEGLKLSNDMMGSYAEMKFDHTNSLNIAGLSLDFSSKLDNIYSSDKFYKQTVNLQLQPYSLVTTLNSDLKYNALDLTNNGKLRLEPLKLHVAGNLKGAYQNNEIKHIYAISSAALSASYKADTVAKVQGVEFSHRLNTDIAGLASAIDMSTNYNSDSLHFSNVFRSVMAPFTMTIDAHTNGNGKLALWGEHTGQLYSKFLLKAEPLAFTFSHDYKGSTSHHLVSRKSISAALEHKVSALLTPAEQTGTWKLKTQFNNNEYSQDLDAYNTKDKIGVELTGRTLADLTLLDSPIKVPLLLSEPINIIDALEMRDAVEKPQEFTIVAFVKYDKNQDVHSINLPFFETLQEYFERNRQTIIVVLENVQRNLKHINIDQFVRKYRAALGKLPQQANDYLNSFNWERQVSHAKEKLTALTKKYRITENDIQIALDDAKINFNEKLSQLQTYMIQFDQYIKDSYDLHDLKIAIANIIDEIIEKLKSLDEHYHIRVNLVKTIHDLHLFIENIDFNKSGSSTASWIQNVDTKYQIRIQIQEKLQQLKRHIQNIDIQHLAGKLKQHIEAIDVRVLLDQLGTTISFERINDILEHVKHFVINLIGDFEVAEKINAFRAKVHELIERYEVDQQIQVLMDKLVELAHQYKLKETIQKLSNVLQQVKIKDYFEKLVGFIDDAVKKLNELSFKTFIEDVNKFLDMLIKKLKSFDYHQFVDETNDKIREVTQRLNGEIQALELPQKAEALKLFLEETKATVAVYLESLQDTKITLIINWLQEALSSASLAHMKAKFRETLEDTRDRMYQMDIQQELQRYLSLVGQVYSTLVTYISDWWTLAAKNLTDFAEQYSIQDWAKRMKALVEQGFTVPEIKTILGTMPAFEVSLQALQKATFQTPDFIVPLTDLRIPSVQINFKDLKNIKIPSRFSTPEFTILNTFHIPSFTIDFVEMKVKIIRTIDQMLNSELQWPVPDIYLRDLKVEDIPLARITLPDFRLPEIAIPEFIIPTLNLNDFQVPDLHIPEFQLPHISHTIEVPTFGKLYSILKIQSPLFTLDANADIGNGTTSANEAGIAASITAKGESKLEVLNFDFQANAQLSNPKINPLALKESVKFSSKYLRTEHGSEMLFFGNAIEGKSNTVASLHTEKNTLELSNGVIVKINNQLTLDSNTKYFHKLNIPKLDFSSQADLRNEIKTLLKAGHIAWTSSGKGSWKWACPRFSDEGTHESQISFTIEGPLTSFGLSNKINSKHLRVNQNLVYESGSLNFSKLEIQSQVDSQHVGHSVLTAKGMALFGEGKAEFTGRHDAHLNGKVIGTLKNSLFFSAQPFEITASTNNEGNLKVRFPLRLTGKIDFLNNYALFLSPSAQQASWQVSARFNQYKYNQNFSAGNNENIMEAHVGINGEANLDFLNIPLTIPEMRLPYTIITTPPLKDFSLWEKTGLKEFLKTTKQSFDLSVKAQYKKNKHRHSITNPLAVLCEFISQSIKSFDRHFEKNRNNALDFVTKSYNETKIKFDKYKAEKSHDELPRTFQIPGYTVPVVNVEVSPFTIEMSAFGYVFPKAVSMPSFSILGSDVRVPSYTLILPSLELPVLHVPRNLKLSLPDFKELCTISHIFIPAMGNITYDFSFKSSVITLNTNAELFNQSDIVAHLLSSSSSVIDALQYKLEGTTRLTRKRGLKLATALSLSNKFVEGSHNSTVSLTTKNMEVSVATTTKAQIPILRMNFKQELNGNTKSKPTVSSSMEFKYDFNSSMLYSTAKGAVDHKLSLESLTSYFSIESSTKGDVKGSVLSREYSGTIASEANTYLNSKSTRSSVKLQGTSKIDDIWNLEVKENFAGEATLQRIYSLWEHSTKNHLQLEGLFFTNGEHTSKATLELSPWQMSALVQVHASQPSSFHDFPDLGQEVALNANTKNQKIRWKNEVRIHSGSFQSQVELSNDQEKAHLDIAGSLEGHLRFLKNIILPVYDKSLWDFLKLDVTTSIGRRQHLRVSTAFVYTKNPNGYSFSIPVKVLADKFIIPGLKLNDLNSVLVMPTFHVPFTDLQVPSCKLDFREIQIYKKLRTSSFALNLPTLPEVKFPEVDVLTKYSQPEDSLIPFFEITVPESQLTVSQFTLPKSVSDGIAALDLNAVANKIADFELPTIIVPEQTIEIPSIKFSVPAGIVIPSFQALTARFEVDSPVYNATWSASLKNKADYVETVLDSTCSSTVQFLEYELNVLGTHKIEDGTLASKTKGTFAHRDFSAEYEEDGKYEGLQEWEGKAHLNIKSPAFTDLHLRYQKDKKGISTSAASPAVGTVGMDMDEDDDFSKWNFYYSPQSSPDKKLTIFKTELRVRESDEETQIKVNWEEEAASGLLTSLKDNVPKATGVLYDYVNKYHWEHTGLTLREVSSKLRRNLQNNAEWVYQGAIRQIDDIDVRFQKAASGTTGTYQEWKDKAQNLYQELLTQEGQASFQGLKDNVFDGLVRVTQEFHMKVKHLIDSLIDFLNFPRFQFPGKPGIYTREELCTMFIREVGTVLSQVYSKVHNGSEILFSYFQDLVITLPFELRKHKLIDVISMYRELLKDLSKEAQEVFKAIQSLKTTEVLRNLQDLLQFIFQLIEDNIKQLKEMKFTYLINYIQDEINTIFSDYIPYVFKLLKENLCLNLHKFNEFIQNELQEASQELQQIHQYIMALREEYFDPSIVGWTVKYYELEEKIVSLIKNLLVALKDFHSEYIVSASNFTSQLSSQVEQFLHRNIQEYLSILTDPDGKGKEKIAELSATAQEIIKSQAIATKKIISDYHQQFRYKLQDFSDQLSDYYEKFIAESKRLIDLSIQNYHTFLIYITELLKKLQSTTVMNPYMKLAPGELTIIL

[3] = target: T1, ApoB100 (apolipoprotein B100); experiment: as above; design: key: RO: reddish orange; details: ApoB (Table 4)
[4] = target: T1, ApoB100 (apolipoprotein B100); experiment: as above; design: key: B: blue.; Br: brown.; G: green.; Go: gold.; O: orange.; P: purple.; R: red.; SB: sky blue.; V: violet.; W: white.; Y: yellow; details: exciting 360 nm, emitting 420 nm
[5] = exciting filter 360 nm, emitting filter 420 nm
[6] = exciting filter 470 nm, emitting filter 515 nm
[7] = exciting 360 nm, emitting 420 nm
[8] = exciting 470 nm, emitting 515 nm

| Compound | Self-fluorescence present or not [1] | Self-fluorescence colour [1, 5] | Self-fluorescence colour [1, 6] | Dye-evoked fluorescence colour [2, 8] | other results |
| --- | --- | --- | --- | --- | --- |
| CCCCC/C=C\C/C=C\CCCCCCCC(=O)O[C@H]1CC[C@@]2(C)C(=CC[C@H]3[C@@H]4CC[C@H]([C@H](C)CCCC(C)C)[C@@]4(C)CC[C@@H]32)C1 [Cholesteryl linolate] | had self-fluorescence | W | Y | – | – |
| Cc1cc(-c2ccc(/N=N/c3ccc4c(S(=O)(=O)O)cc(S(=O)(=O)O)c(N)c4c3O)c(C)c2)ccc1/N=N/c1ccc2c(S(=O)(=O)O)cc(S(=O)(=O)O)c(N)c2c1O [Evans blue] | no self-fluorescence | – | – | O | Dye-evoked fluorescence colour [2, 7]: O |
| CC[n+]1c(-c2ccccc2)c2cc(N)ccc2c2ccc(N)cc21 [Homidium chloride] | has self-fluorescence | Y | O | – | Dye-evoked fluorescence colour [3, 7]: RO; Dye-evoked fluorescence colour [3, 8]: RO |
| CC1=NN(c2cc(Cl)c(S(=O)(=O)[O-])cc2Cl)C(=O)C1N=Nc1ccc(S(=O)(=O)[O-])cc1.[Na+].[Na+] (stereo not drawn) [Lissamine fast yellow] | no self-fluorescence | – | – | – | – |
| O=S(=O)([O-])c1cccc(N=Nc2ccc(Nc3ccccc3)cc2)c1.[Na+] [Metanyl yellow] | no self-fluorescence | – | – | – | – |
| CC[N+](CC)=c1ccc2nc3c(cc(N)c4ccccc43)oc-2c1 [Nile blue] | no self-fluorescence | – | – | G | Dye-evoked fluorescence colour [2, 7]: O |
| Cc1cc(-c2ccc(/N=N/c3c(S(=O)(=O)[O-])cc4cc(S(=O)(=O)[O-])cc(N)c4c3O)c(C)c2)ccc1/N=N/c1c(S(=O)(=O)[O-])cc2cc(S(=O)(=O)[O-])cc(N)c2c1O.[Na+].[Na+].[Na+].[Na+] [Tripan blue] | no self-fluorescence | – | – | O | Dye-evoked fluorescence colour [4]: P |
| CC1=C(/C=C/C(C)=C/C=C/C(C)=C/C=C/C=C(C)/C=C/C=C(C)/C=C/C2=C(C)CCCC2(C)C)C(C)(C)CCC1 [beta-Carotene] | had self-fluorescence | O | O | – | – |
| CC(C)CCC[C@@H](C)[C@H]1CC[C@H]2[C@@H]3CC=C4C[C@@H](O)CC[C@]4(C)[C@H]3CC[C@]12C [free Cholesterol] | had self-fluorescence | W | Y | – | – |
| phosphatidylcholine [PC] | had self-fluorescence | W | – | – | – |
